# Measurements from publication PMC9823006 (Nature Communications, 2023).
# “And” between values parts separate entries of the source, which are not always exact repeats. Equal entries are not always repeated.
# Target: T1, Kal^Sec14 (Rattus norvegicus, UniProt P97924, N62Y/T46S)
# T1 construct: 19.4 kDa); His6 (TEV-cleavable) (N, cleaved yes); made in house; host or cells: E. coli BL21(DE3)
# Experiment: Liposome flotation binding assay (Accudenz gradient, Western blot)
# Details: Suppl. Fig. 9b,c, average, biological replication ≥ 3
# Experimental: (§1) The synthetic and natural lipids used in flotation assays were purchased from Avanti Polar Lipids, Inc. (Supplementary Table 2). All powdered lipids were dissolved in chloroform per the manufacturer’s instructions. Liposomes were prepared as previously described. […] Individual test lipids were dried together with the control lipid mix under a nitrogen stream and lyophilized overnight. Each dried lipid film was reconstituted to a final concentration of 1 mM in HN buffer containing 20 mM HEPES (pH 7.4) and 150 mM NaCl. Each final lipid mixtures consisted of 52% DOPC, 20% DOPE, 5% DOPS, 15% cholesterol and 8% tested lipid; inclusion of a trace amount of fluorescent lipid (Liss Rhod PE) allowed for localization of liposomes following gradient fractionation (see below). Each lipid mixture underwent five freeze-thaw cycles separated by vigorous vortexing each time it was thawed. Using a mini-extruder, unilamellar liposomes were prepared by passing each lipid mixture 21 times through a polycarbonate membrane of 100-nm pore size. Hydrated lipid mixtures were stored at −20 °C for up to 1 month; liposomes were freshly prepared for each experiment.
# (§2) Flotation assays were conducted following the protocol previously described. Accudenz (Accurate Chemical and Scientific Corp., Westbury, NY) solutions (80 and 20% weight/vol) were prepared in HN buffer. To remove any particulate material, the protein to be tested was first centrifuged at 436,000 g at 4 °C for 15 min in a TL-100 ultracentrifuge using a Beckman TLA100.2 fixed angle rotor. Freshly prepared unilamellar liposomes (50 μl) were combined with 0.2 μg of the centrifuged protein and incubated at room temperature for 30 min. The entire liposome/protein mixture was then combined with 50 μl of 80% Accudenz at the bottom of an ultracentrifuge tube and carefully mixed to completion by pipetting. The resulting mixture was overlayered with […] of 20% Accudenz and then with 50 μl of HN buffer. Samples were centrifuged at 259,000 g at 4 °C for 30 min in the same ultracentrifuge using a Beckman TLS55 swinging bucket rotor. Gradients were then divided into four 100-μl fractions, which were carefully collected from the bottom of the tube using gel loading micropipette tips. Each fraction was analyzed for liposome and protein content using spectrophotometry (546-nm excitation/571-nm emission) and Western blot, respectively. Only those assays with at least 90% of the Liss Rhod PE marker recovered in the top fraction (fraction 1) were used for Western bloting analysis.
# For Western bloting analysis, equal aliquots of each gradient fraction were denatured in 1× Laemmli sample buffer, fractionated on 15% acrylamide gels, and transferred to PVDF membranes. The protein content was detected using a custom-made rabbit antibody to the Sec14 domain of Kalirin (CT302[69], 1:3000) and an HRP-tagged goat anti-rabbit IgG (H + L) secondary antibody (catalog # 31460, 1:6000; ThermoFisher Scientific). SuperSignal West chemiluminescent substrate (Thermo Scientific) and a Syngene PXi digital imaging system (Synoptics Group) were used to visualize blots, with exposures adjusted to be in the linear range. After background subtraction, bands were quantified using the GeneSys software provided with the imaging system, and data were represented as a proportion of total protein recovered. Uncropped blots, quantification of each data point and exact P-values are provided in the Source Data file. […]
# a. Representative Western blots from flotation assays with Kal Sec14 alone (Control), and Kal Sec14 with the control lipid mix (Lipo) or with the lipid mix containing the indicated additional lipid. After binding and separation of liposome bound Kal Sec14 from unbound Kal Sec14 on Accudenz gradients, the protein content of four gradient fractions was dete rmined by immunoblot; liposomes were recovered from the top fraction (fraction 1). Source data are […]
SMILES,"Densitometry values for the Western blots, Fraction 1, Ave.","Densitometry values for the Western blots, Fraction 2, Ave.","Densitometry values for the Western blots, Fraction 3, Ave.","Densitometry values for the Western blots, Fraction 4, Ave."
"CCCCCCCCCCCCCC(=O)OC[C@@H](O)COP(=O)(O)OCC(O)CO (mixture of isomers) [LPG14:0, 1-myristoyl-2-hydroxy-sn-glycero-3-phospho-(1'-rac-glycerol)]",0.05,0.0118,0.0754,0.86
"CCCCCCCCCCCCC(=O)OC[C@@H](O)COP(=O)(O)OC[C@H](N)C(=O)O [LPS13:0, 1-tridecanoyl-sn-glycero-3-phospho-L-serine]",0.05,0.00866,0.09,0.86
"CCCCCCCCCCCCC(=O)OC[C@@H](O)COP(=O)(O)OC1C(O)C(O)C(O)C(O)C1O (some centres unmarked) [LPI13:0, 1-tridecanoyl-2-hydroxy-sn-glycero-3-phospho-(1'-myo-inositol)]",0.0225,0.0117,0.17,0.80
"CCCCCCCCCCCCCC(=O)OC[C@H](COP(=O)([O-])OCC[N+](C)(C)C)OC(=O)CCCCCCCCCCCCC [DMPC, 1,2-dimyristoyl-sn-glycero-3-phosphocholine]",0.03,0.01,0.11,0.85

# Same assay, conditions: Suppl. Fig. 9b,c, individual experiments (Exp. 1-4)
SMILES,"Densitometry values for the Western blots, Fraction 1","Densitometry values for the Western blots, Fraction 2","Densitometry values for the Western blots, Fraction 3","Densitometry values for the Western blots, Fraction 4"
"CCCCCCCCCCCCCC(=O)OC[C@@H](O)COP(=O)(O)OCC(O)CO (mixture of isomers) [LPG14:0, 1-myristoyl-2-hydroxy-sn-glycero-3-phospho-(1'-rac-glycerol)]",0.0538 and 0.045 and 0.06,0.00506 and 0.000399 and 0.03,0.0633 and 0.055 and 0.11,0.88 and 0.90 and 0.80
"CCCCCCCCCCCCC(=O)OC[C@@H](O)COP(=O)(O)OC[C@H](N)C(=O)O [LPS13:0, 1-tridecanoyl-sn-glycero-3-phospho-L-serine]",0.07 and 0.05 and 0.025 and 0.0554,0.00695 and 0.01 and 0.00643 and 0.0108,0.07 and 0.05 and 0.16,0.86 and 0.89 and 0.90 and 0.78
"CCCCCCCCCCCCC(=O)OC[C@@H](O)COP(=O)(O)OC1C(O)C(O)C(O)C(O)C1O (some centres unmarked) [LPI13:0, 1-tridecanoyl-2-hydroxy-sn-glycero-3-phospho-(1'-myo-inositol)]",0.0325 and 0.0143 and 0.02,0.00684 and 0.00931 and 0.019,0.10 and 0.16 and 0.24,0.86 and 0.82 and 0.72
"CCCCCCCCCCCCCC(=O)OC[C@H](COP(=O)([O-])OCC[N+](C)(C)C)OC(=O)CCCCCCCCCCCCC [DMPC, 1,2-dimyristoyl-sn-glycero-3-phosphocholine]",0.0333 and 0.0235 and 0.03,0.00764 and 0.00497 and 0.0174,0.08 and 0.10 and 0.15,0.87 and 0.81

# Target: T2, KalbSec14 (Rattus norvegicus, UniProt P97924, N62Y/T46S)
# T2 construct: His6 (TEV-cleavable) (N, cleaved yes); made in house; host or cells: E. coli BL21(DE3)
# Experiment: as above
# Details: Golgi-mixture liposomes with 8% test lipid; result in words
# Experimental: Unilamellar liposomes formed by mixing synthetic dioleoyl phospholipids and cholesterol in proportions mimicking the membranes of the trans-Golgi network (Golgi-mixture) were incubated with Kal^bSec14. An Accudenz gradient was used to separate liposome-bound proteins, which were recovered from the top of the gradient (fraction 1), from unbound proteins, which remained at the bottom (fraction 4). Protein levels in each fraction were analyzed by Western blotting with an antibody to the Sec14 domain of Kalirin.
# as §1, §2
# For Western bloting analysis, equal aliquots of each gradient fraction were denatured in 1× Laemmli sample buffer, fractionated on 15% acrylamide gels, and transferred to PVDF membranes. The protein content was detected using a custom-made rabbit antibody to the Sec14 domain of Kalirin (CT302[69], 1:3000) and an HRP-tagged goat anti-rabbit IgG (H + L) secondary antibody (catalog # 31460, 1:6000; ThermoFisher Scientific). SuperSignal West chemiluminescent substrate (Thermo Scientific) and a Syngene PXi digital imaging system (Synoptics Group) were used to visualize blots, with exposures adjusted to be in the linear range.
row,SMILES,binding of Kal^bSec14 to liposomes containing the lipid
1,"CCCCCCCCCCCCCC(=O)OC[C@@H](O)COP(=O)(O)OCC(O)CO (mixture of isomers) [LPG14:0, 1-myristoyl-2-hydroxy-sn-glycero-3-phospho-(1'-rac-glycerol)]",fail to interact
2,"CCCCCCCCCCCCC(=O)OC[C@@H](O)COP(=O)(O)OC[C@H](N)C(=O)O [LPS13:0, 1-tridecanoyl-sn-glycero-3-phospho-L-serine]",fail to interact
3,"CCCCCCCCCCCCC(=O)OC[C@@H](O)COP(=O)(O)OC1C(O)C(O)C(O)C(O)C1O (some centres unmarked) [LPI13:0, 1-tridecanoyl-2-hydroxy-sn-glycero-3-phospho-(1'-myo-inositol)]",fail to interact
4,"CCCCCCCCCCCCCC(=O)OC[C@H](COP(=O)([O-])OCC[N+](C)(C)C)OC(=O)CCCCCCCCCCCCC [DMPC, 1,2-dimyristoyl-sn-glycero-3-phosphocholine]",precludes binding

# Same assay, conditions: mean of independent experiments; normalized to total protein recovered; test lipid 8% of liposome lipid
SMILES,"Fraction 1 protein content (top fraction, liposome-bound), densitometry, Ave.","Fraction 2 protein content, densitometry, Ave.","Fraction 3 protein content, densitometry, Ave.","Fraction 4 protein content (bottom fraction, unbound), densitometry, Ave."
"CCCCCCCCCCCCCC(=O)OC[C@@H](O)COP(=O)(O)OCC(O)CO (mixture of isomers) [LPG14:0, 1-myristoyl-2-hydroxy-sn-glycero-3-phospho-(1'-rac-glycerol)]",0.05,0.00765,0.0849,0.86
"CCCCCCCCCCCCC(=O)OC[C@@H](O)COP(=O)(O)OC[C@H](N)C(=O)O [LPS13:0, 1-tridecanoyl-sn-glycero-3-phospho-L-serine]",0.03,0.0069,0.09,0.88
"CCCCCCCCCCCCC(=O)OC[C@@H](O)COP(=O)(O)OC1C(O)C(O)C(O)C(O)C1O (some centres unmarked) [LPI13:0, 1-tridecanoyl-2-hydroxy-sn-glycero-3-phospho-(1'-myo-inositol)]",0.028,0.00535,0.18,0.79
"CCCCCCCCCCCCCC(=O)OC[C@H](COP(=O)([O-])OCC[N+](C)(C)C)OC(=O)CCCCCCCCCCCCC [DMPC, 1,2-dimyristoyl-sn-glycero-3-phosphocholine]",0.0259,0.0121,0.11,0.85

# Same assay, conditions: single experiments; normalized to total protein recovered from each gradient; test lipid 8% of liposome lipid
row,SMILES,"Fraction 1 protein content (top fraction, liposome-bound), densitometry"
1,"CCCCCCCCCCCCC(=O)OC[C@@H](O)COP(=O)(O)OC1C(O)C(O)C(O)C(O)C1O (some centres unmarked) [LPI13:0, 1-tridecanoyl-2-hydroxy-sn-glycero-3-phospho-(1'-myo-inositol)]",0.0252 and 0.03
2,"CCCCCCCCCCCCCC(=O)OC[C@H](COP(=O)([O-])OCC[N+](C)(C)C)OC(=O)CCCCCCCCCCCCC [DMPC, 1,2-dimyristoyl-sn-glycero-3-phosphocholine]",0.03 and 0.0163 and 0.0322

# Same assay, conditions: single experiments; normalized to total protein recovered; test lipid 8% of liposome lipid
SMILES,"Fraction 2 protein content, densitometry","Fraction 3 protein content, densitometry","Fraction 4 protein content (bottom fraction, unbound), densitometry"
"CCCCCCCCCCCCCC(=O)OC[C@@H](O)COP(=O)(O)OCC(O)CO (mixture of isomers) [LPG14:0, 1-myristoyl-2-hydroxy-sn-glycero-3-phospho-(1'-rac-glycerol)]",0.00729 and 0.00538 and 0.01,0.07 and 0.09,0.89 and 0.86 and 0.83
"CCCCCCCCCCCCC(=O)OC[C@@H](O)COP(=O)(O)OC[C@H](N)C(=O)O [LPS13:0, 1-tridecanoyl-sn-glycero-3-phospho-L-serine]",,,0.88 and 0.93 and 0.85 and 0.84
"CCCCCCCCCCCCC(=O)OC[C@@H](O)COP(=O)(O)OC1C(O)C(O)C(O)C(O)C1O (some centres unmarked) [LPI13:0, 1-tridecanoyl-2-hydroxy-sn-glycero-3-phospho-(1'-myo-inositol)]",,,0.70 and 0.76 and 0.89
"CCCCCCCCCCCCCC(=O)OC[C@H](COP(=O)([O-])OCC[N+](C)(C)C)OC(=O)CCCCCCCCCCCCC [DMPC, 1,2-dimyristoyl-sn-glycero-3-phosphocholine]",,0.10 and 0.15 and 0.0759,0.86 and 0.83 and 0.87

# Target: T2, KalbSec14
# Experiment: Isothermal titration calorimetry (preliminary)
# Assay type: binding
# Details: preliminary ITC, data not shown
row,SMILES,ITC signal
1,"CCCCCCCCCCOP(=O)([O-])OCC[N+](C)(C)C [FC10, decylphosphocholine]",no ITC signal was observed
